Results taken from patent US10875875B2, “Propionic acid derivatives and methods of use thereof” (Aviara Pharmaceuticals, Inc., priority 2017, dated 2020).
pIC50: −log10 of the molar value.

Target: α4β1 (Homo sapiens, UniProt P05556+P13612)
Experiment: α4β1 integrin inhibition, IC50
Assay type: binding
Settings: read-out: α4β1 IC50

Chain of α4β1 (P13612 34-1032): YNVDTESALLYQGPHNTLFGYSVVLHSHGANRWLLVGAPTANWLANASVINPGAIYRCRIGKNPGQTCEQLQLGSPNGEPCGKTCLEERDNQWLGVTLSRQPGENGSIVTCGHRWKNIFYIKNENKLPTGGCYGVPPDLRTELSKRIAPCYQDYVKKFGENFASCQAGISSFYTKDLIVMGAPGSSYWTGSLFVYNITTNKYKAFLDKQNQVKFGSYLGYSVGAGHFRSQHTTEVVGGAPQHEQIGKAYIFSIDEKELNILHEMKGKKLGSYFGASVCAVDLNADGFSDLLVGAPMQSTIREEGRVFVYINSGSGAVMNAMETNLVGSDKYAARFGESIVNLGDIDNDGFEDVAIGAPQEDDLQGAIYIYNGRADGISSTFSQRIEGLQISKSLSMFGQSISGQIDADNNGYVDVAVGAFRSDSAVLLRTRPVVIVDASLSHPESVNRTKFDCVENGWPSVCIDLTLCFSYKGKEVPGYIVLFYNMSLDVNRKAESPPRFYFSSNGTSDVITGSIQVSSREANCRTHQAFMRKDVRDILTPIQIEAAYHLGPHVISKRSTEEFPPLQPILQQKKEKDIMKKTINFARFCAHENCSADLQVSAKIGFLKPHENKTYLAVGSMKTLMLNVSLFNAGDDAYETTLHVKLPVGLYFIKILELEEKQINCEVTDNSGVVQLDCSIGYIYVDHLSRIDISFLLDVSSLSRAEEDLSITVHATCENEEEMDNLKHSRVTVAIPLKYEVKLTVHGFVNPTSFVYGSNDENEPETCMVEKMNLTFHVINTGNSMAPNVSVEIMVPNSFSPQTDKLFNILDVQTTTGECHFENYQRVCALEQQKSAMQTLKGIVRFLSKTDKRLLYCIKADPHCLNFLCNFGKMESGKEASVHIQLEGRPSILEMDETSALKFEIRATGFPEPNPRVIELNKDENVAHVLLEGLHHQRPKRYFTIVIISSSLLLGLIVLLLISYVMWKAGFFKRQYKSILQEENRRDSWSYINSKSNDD
Chain of α4β1 (P05556 21-798): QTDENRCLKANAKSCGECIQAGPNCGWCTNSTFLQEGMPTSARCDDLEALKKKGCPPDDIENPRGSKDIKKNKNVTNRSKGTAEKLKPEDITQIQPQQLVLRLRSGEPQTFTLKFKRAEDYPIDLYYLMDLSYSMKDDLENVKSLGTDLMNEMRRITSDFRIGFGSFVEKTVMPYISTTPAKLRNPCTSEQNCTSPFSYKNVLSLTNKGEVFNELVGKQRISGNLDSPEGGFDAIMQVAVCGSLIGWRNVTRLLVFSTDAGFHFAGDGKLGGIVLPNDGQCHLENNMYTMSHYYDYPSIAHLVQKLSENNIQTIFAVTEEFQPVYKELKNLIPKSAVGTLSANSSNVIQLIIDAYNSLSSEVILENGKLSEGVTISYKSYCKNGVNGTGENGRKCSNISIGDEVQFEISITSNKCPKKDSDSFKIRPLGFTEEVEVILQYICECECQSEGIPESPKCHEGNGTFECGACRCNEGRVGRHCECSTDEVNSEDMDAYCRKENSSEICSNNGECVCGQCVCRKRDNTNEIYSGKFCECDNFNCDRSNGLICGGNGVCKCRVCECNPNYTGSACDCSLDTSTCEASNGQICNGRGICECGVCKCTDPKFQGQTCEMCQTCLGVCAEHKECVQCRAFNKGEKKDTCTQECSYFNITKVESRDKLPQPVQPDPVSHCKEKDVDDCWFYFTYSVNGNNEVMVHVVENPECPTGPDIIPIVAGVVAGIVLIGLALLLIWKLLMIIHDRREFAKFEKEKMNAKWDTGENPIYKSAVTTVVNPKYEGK

| Compound | pIC50 |
| --- | --- |
| Cn1ccc(O)c(NC(=O)N[C@@H](CC(=O)O)c2cc(-c3ccc(F)cc3F)ccc2F)c1=O [1-591, sodium (S)-3-(3-(1-methyl-4-oxido-2-oxo-1,2-dihydropyridin-3-yl)ureido)-3-(2′,4,4′-trifluorobiphenyl-3-yl)propanoate] | > 7.70 |
| Cc1cc(O)c(NC(=O)N[C@@H](CC(=O)O)c2cc(-c3ccc(F)cc3F)ccc2F)c(=O)n1C [1-592, sodium (S)-3-(3-(1,6-dimethyl-4-oxido-2-oxo-1,2-dihydropyridin-3-yl)ureido)-3-(2′,4,4′-trifluorobiphenyl-3-yl)propanoate] | > 7.70 |
| COc1cccc(-c2ccc(F)c([C@H](CC(=O)O)NC(=O)Nc3c(O)ccn(C)c3=O)c2)c1 [1-593, sodium (S)-3-(4-fluoro-3′-methoxybiphenyl-3-yl)-3-(3-(1-methyl-4-oxido-2-oxo-1,2-dihydropyridin-3-yl)ureido)propanoate] | > 7.70 |
| Cn1ccc(O)c(NC(=O)N[C@@H](CC(=O)O)c2cc(-c3cccc(OC(F)(F)F)c3)ccc2F)c1=O [1-594, sodium (S)-3-(4-fluoro-3′-(trifluoromethoxy)biphenyl-3-yl)-3-(3-(1-methyl-4-oxido-2-oxo-1,2-dihydropyridin-3-yl)ureido)propanoate] | > 7.70 |
| Cc1cc(O)c(NC(=O)N[C@@H](CC(=O)O)c2cc(-c3cccc(OC(F)(F)F)c3)ccc2F)c(=O)n1C [1-595, sodium (S)-3-(3-(1,6-dimethyl-4-oxido-2-oxo-1,2-dihydropyridin-3-yl)ureido)-3-(4-fluoro-3′-(trifluoromethoxy)biphenyl-3-yl)propanoate] | > 7.70 |
| COc1ccc(-c2ccccc2)cc1[C@H](CC(=O)O)NC(=O)Nc1c(O)ccn(C)c1=O [1-596, sodium (S)-3-(4-methoxybiphenyl-3-yl)-3-(3-(1-methyl-4-oxido-2-oxo-1,2-dihydropyridin-3-yl)ureido)propanoate] | > 7.70 |
| Cc1cc(-c2c(C)cccc2C)cc([C@H](CC(=O)O)NC(=O)Nc2c(O)cc(C)n(C)c2=O)c1 [1-597, sodium (S)-3-(3-(1,6-dimethyl-4-oxido-2-oxo-1,2-dihydropyridin-3-yl)ureido)-3-(2′,5,6′-trimethylbiphenyl-3-yl)propanoate] | > 7.70 |
| Cc1ccccc1-c1cccc([C@H](CC(=O)O)NC(=O)Nc2c(O)ccn(C)c2=O)c1 [1-598, sodium (S)-3-(3-(1-methyl-4-oxido-2-oxo-1,2-dihydropyridin-3-yl)ureido)-3-(2′-methylbiphenyl-3-yl)propanoate] | > 7.70 |
| Cc1ccccc1-c1cccc([C@H](CC(=O)O)NC(=O)Nc2c(O)cc(C)n(C)c2=O)c1 [1-599, sodium (S)-3-(3-(1,6-dimethyl-4-oxido-2-oxo-1,2-dihydropyridin-3-yl)ureido)-3-(2′-methylbiphenyl-3-yl)propanoate] | > 7.70 |
| Cc1cccc(C)c1-c1cc(F)cc([C@H](CC(=O)O)NC(=O)Nc2c(O)ccn(C)c2=O)c1 [1-600, sodium (S)-3-(5-fluoro-2′,6′-dimethylbiphenyl-3-yl)-3-(3-(1-methyl-4-oxido-2-oxo-1,2-dihydropyridin-3-yl)ureido)propanoate] | > 7.70 |
| Cn1ccc(O)c(NC(=O)N[C@@H](CC(=O)O)c2ccc(-c3cccc(OC(F)(F)F)c3)s2)c1=O [1-601, sodium (S)-3-(3-(1-methyl-4-oxido-2-oxo-1,2-dihydropyridin-3-yl)ureido)-3-(5-(3-(trifluoromethoxy)phenyl)thiophen-2-yl)propanoate] | > 7.70 |
| COc1ccc(-c2c(C)cccc2C)cc1[C@H](CC(=O)O)NC(=O)Nc1c(O)ccn(C)c1=O [1-602, sodium (S)-3-(4-methoxy-2′,6′-dimethylbiphenyl-3-yl)-3-(3-(1-methyl-4-oxido-2-oxo-1,2-dihydropyridin-3-yl)ureido)propanoate] | > 7.70 |
| COc1cccc(-c2ccc(F)c([C@H](CC(=O)O)NC(=O)Nc3c(O)cc(C)n(C)c3=O)c2)c1 [1-603, sodium (S)-3-(3-(1,6-dimethyl-4-oxido-2-oxo-1,2-dihydropyridin-3-yl)ureido)-3-(4-fluoro-3′-methoxybiphenyl-3-yl)propanoate] | > 7.70 |
